The values that follow come from patent US9073880B2, “2-(2-phenylethenyl) 1,3-benzodiazepine derivatives useful for the treatment of cancer” (Yissum Research Development Company of the Hebrew …, priority 2010, dated 2015).

pIC50: −log10 of the molar value.

In assay [1] the test system is human hepatocarcinoma HepG2 cells. Put plainly: Cell proliferation, HepG2 (Example 4). As to conditions: compound in 2-hydroxypropyl-β-cyclodextrin. The assay is classed as cell-based. How it is done: (§1) Human ovary cancer A2780 cells lines were seeded at a density of 5000 cells/well, human melanoma A375 cells were plated at a density of 2,500 cells/well, human colon carcinoma HCT15 cells were plated at a density of 3,000 cells/well, human prostate carcinoma PC3 cells were plated at a density of 1,500 cells/well, human breast carcinoma MCF7 cells were plated at a density of 5,000 cells/well, human breast carcinoma MDA MB 468 cells were plated at a density of 6,000 cells/well, human myeloma U266, RPMI8226 and CAG cells were plated at a density of 10,000 cells/well. All cells were plated in 96-well plates in 90 μl growth medium containing 10% FCS, 100 units/ml penicillin and 100 μg/ml streptomycin. Compound 3 was added a day later in […] of 1% DMSO in DDW to obtain final concentrations of 0, 0.1, 0.3, 1, 3, and 10 μM. The final concentration of DMSO (0.1% DMSO) was kept constant in all samples. Following exposure of the cells to compound 3 for 72 hours at 37° C., adhered cells were fixed in 0.5% gluteraldehyde in medium for 10 min, washed three times with DDW, once with 0.1M sodium borate buffer pH 8.5 and stained with 1% methylene blue dissolved in 0.1M borate buffer solution for 60 min. Excess dye was washed out and cell-bound dye was eluted with 200 μl/well of 0.1M HCl. The optical density values were read at 630 nm in ELISA plate reader. Non-adhered cells were exposed to WST-1 reagent for 5 hours following 72 hours treatment with the inhibitors, and optical density values were read at 630 nm in ELISA plate reader. The data was analyzed in Microsoft Excel, using the vehicle control as 100% proliferation. The assays were performed in triplicates. The values of IC50 were derived from the dose-dependent growth curves obtained.
(§2) Cell proliferation assay was performed as described in Example 2. […]

The test system of assay [2] is human lymphoma KARPAS cells. The assay is described as follows: Cell proliferation, KARPAS (Example 4). As to conditions: compound in 2-hydroxypropyl-β-cyclodextrin. The assay is classed as cell-based. The protocol: as §1, §2

`O=c1c(O)cc2cnc(/C=C/c3ccc(O)c(O)c3Br)sc-2c1O` [Compound 5]: the pIC50 in assay [1] was 5.80; in assay [2], 6.05.
For `O=c1c(O)cc2cnc(/C=C/c3cc(O)c(O)c(Br)c3)sc-2c1O` [Compound 3], in that order: 6.05 and 6.30.

As usually defined, the pIC50 is the negative decadic logarithm of the IC50, by convention in mol/L. Lower therefore signals a high IC50.
